In patent US8124744B2, “Macrolide derivatives” (Taisho Pharmaceutical Co., Ltd., priority 2006, dated 2012):

How the values were obtained:
[1] = test system: pro MMP-9 protein; test: Inhibitory activity against proMMP-9 protein production (TNF α-stimulated mouse peritoneal exudate cells, ELISA); format: cell-based, C57BL/6J mice; conditions: relative activity when the value of Comparative Agent 1 (IC50 = 10.04 ± 4.11 μM) is 10, on the increase of pro MMP-9 by TNF α 25 ng/ml, 24 hours, read-out: IC50 (μM)*
Method: (§1) To 7- to 9-week male C57BL/6J mice (purchased from CLEA Japan, Inc. or Japan SLC, Inc.), Zymosan A (SIGMA) derived from budding yeasts which is adjusted to be 1 mg/ml in a phosphate buffer solution (PBS, 10010-49, Invitrogen) was administered intraperitoneally at 1 ml per mouse to induce peritonitis. Three days later, filter-sterilized cell recovery buffer (2 mM EDTA, 0.5% bovine serum albumin, PBS, pH 7.4) was administered intraperitoneally at 5 ml per mouse to recover peritoneal exudata cells. The cells went through a cell strainer (70 μm nylon, FALCON) and were then washed twice with a Hanks solution (Invitrogen). The cells were suspended in 10% fetal calf serum-containing Dulbecco's modified Eagle's culture medium (Invitrogen). The suspension was seeded on a plate with 48 wells, after 6 hours, the culture medium was completely exchanged. After culturing for another 18 hours, test compounds were added at 0.02 to 20 μM of the final concentration. After 1 hour from the addition of the compounds, a tumor necrosis factor (TNF) α (R & D Systems) was added at 25 ng/ml of the final concentration, and 24 hours later, the culture supernatant was collected. The amount of pro MMP-9 protein in the supernatant was quantified by an enzyme-linked immunosorbent assay (ELISA) (R & D Systems), IC50 values of the test compounds on the increased amount by TNF α stimuli, were calculated by ORIGIN analysis software (trade name: OriginLab). In addition, minimal inhibitory concentration (MIC) of each test compounds (measured bacterium: Staphylococcus aureus ATCC29213) was measured. As a comparative agent […] A (clarithromycin) was used.

[2] = test system: Staphylococcus aureus ATCC29213; test: Minimal inhibitory concentration (MIC); format: cell-based
Method: as §1

SMILES | IC50 [1] [µM] | MIC [2] [µg/mL]
CC[C@H]1OC(=O)[C@H](C)[C@@H](O[C@H]2C[C@@](C)(OC)[C@@H](O)[C@H](C)O2)[C@H](C)[C@@H](O[C@@H]2O[C@H](C)C[C@H](N(C)C)[C@H]2OCCCNS(C)(=O)=O)[C@@](C)(OC)C[C@@H](C)C(=O)[C@H](C)[C@@H](O)[C@]1(C)O [Example 117, 2′-O-(3-methanesulfonylamidepropyl)-6-O-methylerythromycin A] | 3.55 | > 128
CC[C@H]1OC(=O)[C@H](C)[C@@H](O[C@H]2C[C@@](C)(OC)[C@@H](OC(C)=O)[C@H](C)O2)[C@H](C)[C@@H](O[C@@H]2O[C@H](C)C[C@H](N(C)C)[C@H]2OCCCN2CCOCC2)[C@@](C)(OC)C[C@@H](C)C(=O)[C@H](C)[C@@H](O)[C@]1(C)O [Example 119, 4″-O-acetyl-2′-O-(3-(4-morpholino)propyl)-6-O-methylerythromycin A] | 4.42 | > 128
CC[C@H]1OC(=O)[C@H](C)[C@@H](O[C@H]2C[C@@](C)(OC)[C@@H](OC(C)=O)[C@H](C)O2)[C@H](C)[C@@H](O[C@@H]2O[C@H](C)C[C@H](N(C)C)[C@H]2OCCCN2CCC(O)CC2)[C@@](C)(OC)C[C@@H](C)C(=O)[C@H](C)[C@@H](O)[C@]1(C)O [Example 122, 4″-O-acetyl-2′-O-(3-(4-hydropiperidin-1-yl)propyl)-6-O-methylerythromycin A] | 3.06 | > 128
CC[C@H]1OC(=O)[C@H](C)[C@@H](O[C@H]2C[C@@](C)(OC)[C@@H](O)[C@H](C)O2)[C@H](C)[C@@H](O[C@@H]2O[C@H](C)C[C@H](N(C)CCCOCc3ccccc3)[C@H]2OC)[C@@](C)(OC)C[C@@H](C)C(=O)[C@H](C)[C@@H](O)[C@]1(C)O [Example 129, 3′-N-demethyl-3′-N-(3-benzyloxypropyl)-6,2′-di-O-methylerythromycin A] | < 1.04 | > 128
CC[C@H]1OC(=O)[C@H](C)[C@@H](O[C@H]2C[C@@](C)(OC)[C@@H](O)[C@H](C)O2)[C@H](C)[C@@H](O[C@@H]2O[C@H](C)C[C@H](N(C)CCCN(C)C)[C@H]2OC)[C@@](C)(OC)C[C@@H](C)C(=O)[C@H](C)[C@@H](O)[C@]1(C)O [Example 130, 3′-N-demethyl-3′-N-(3-dimethylaminopropyl)-6,2′-di-O-methylerythromycin A] | 1.33 | > 128
CC[C@H]1OC(=O)[C@H](C)[C@@H](O[C@H]2C[C@@](C)(OC)[C@@H](O)[C@H](C)O2)[C@H](C)[C@@H](O[C@@H]2O[C@H](C)C[C@H](N(C)CCCN3CCOCC3)[C@H]2OC)[C@@](C)(OC)C[C@@H](C)C(=O)[C@H](C)[C@@H](O)[C@]1(C)O [Example 131, 3′-N-demethyl-3′-N-(3-(4-morpholino)propyl)-6,2′-di-O-methylerythromycin A] | 3.33 | > 128
CC[C@H]1OC(=O)[C@H](C)[C@@H](O[C@H]2C[C@@](C)(OC)[C@@H](O)[C@H](C)O2)[C@H](C)[C@@H](O[C@@H]2O[C@H](C)C[C@H](N(C)CCCO)[C@H]2OC)[C@@](C)(OC)C[C@@H](C)C(=O)[C@H](C)[C@@H](O)[C@]1(C)O [Example 132, 3′-N-demethyl-3′-N-(3-hydroxypropyl)-6,2′-di-O-methylerythromycin A] | 2.52 | > 128
CC[C@H]1OC(=O)[C@H](C)[C@@H](O[C@H]2C[C@@](C)(OC)[C@@H](OC(C)=O)[C@H](C)O2)[C@H](C)[C@@H](O[C@@H]2O[C@H](C)C[C@H](N(C)CCCOC(C)=O)[C@H]2OC)[C@@](C)(OC)C[C@@H](C)C(=O)[C@H](C)[C@@H](O)[C@]1(C)O [Example 136, 4″-O-acetyl-3′-N-demethyl-3′-N-(3-acetoxypropyl)-6,2′-di-O-methylerythromycin A] | 2.12 | > 128
CC[C@H]1OC(=O)[C@H](C)[C@@H](O[C@H]2C[C@@](C)(OC)[C@@H](O)[C@H](C)O2)[C@H](C)[C@@H](O[C@@H]2O[C@H](C)C[C@H](N)[C@H]2OC)[C@@](C)(OC)C[C@@H](C)C(=O)[C@H](C)[C@@H](O)[C@]1(C)O [Example 138, 3′-N-dedimethyl-6,2′-di-O-methylerythromycin A] | 3.95 | > 128

Other lines, results leading:

IC50 [1] [µM] | MIC [2] [µg/mL] | SMILES
5.51 | > 128 | CC[C@H]1OC(=O)[C@H](C)[C@@H](O[C@H]2C[C@@](C)(OC)[C@@H](O)[C@H](C)O2)[C@H](C)[C@@H](O[C@@H]2O[C@H](C)C[C@H](N3CCOCC3)[C@H]2OC)[C@@](C)(OC)C[C@@H](C)C(=O)[C@H](C)[C@@H](O)[C@]1(C)O [Example 139, 3′-N-dedimethylamino-3-(4-morpholino)-6,2′-di-O-methylerythromycin A]
2.18 | > 128 | CC[C@H]1OC(=O)[C@H](C)[C@@H](O[C@H]2C[C@@](C)(OC)[C@@H](O)[C@H](C)O2)[C@H](C)[C@@H](O[C@@H]2O[C@H](C)C[C@H](N(C)C)[C@H]2OC)[C@@](C)(OC)C[C@@H](C)[C@H](O)[C@H](C)[C@@H](O)[C@]1(C)O [Example 141, 9-deoxo-9-(S)-hydroxy-6,2′-di-O-methylerythromycin A]
7.68 | > 128 | CC[C@H]1OC(=O)[C@H](C)[C@@H](O[C@H]2C[C@@](C)(OC)[C@@H](OC(C)=O)[C@H](C)O2)[C@H](C)[C@@H](O[C@@H]2O[C@H](C)C[C@H](N(C)C)[C@H]2OC)[C@@](C)(OC)C[C@@H](C)C(=O)[C@H](C)[C@H]2NC(=O)O[C@@]21C [Example 148, 4″-O-acetyl-11-amino-11-deoxy-6,2′-di-O-methylerythromycin A 11,12-cyclic carbamate]
9.7 | > 128 | CC[C@H]1OC(=O)[C@H](C)C(=O)[C@H](C)[C@@H](O[C@@H]2O[C@H](C)C[C@H](N(C)C)[C@H]2OC)[C@@](C)(OC)C[C@@H](C)C(=O)[C@H](C)[C@@H](O)[C@]1(C)O [Example 155, 3-deoxy-3-oxo-5-O-(2′-O-methyldesosaminyl)-6-O-methylerythronolide A]
< 1.5 | > 128 | CC[C@H]1OC(=O)[C@H](C)[C@@H](O[C@H]2C[C@@](C)(OC)[C@@H](OC(C)=O)[C@H](C)O2)[C@H](C)[C@@H](O[C@@H]2O[C@H](C)C[C@@H](N(C)CCCc3ccncc3)[C@@H]2N(C)C)[C@@](C)(OC)C[C@@H](C)C(=O)[C@H](C)[C@@H](O)[C@]1(C)O [Example 162, 4″-O-acetyl-3′-N-demethyl-2′-deoxy-2′-dimethylamino-3′-N-(3-(4-pyridyl)propyl)-6-O-methylerythromycin A]
2.77 | > 128 | CC[C@H]1OC(=O)[C@H](C)[C@@H](O[C@H]2C[C@@](C)(OC)[C@@H](OC(C)=O)[C@H](C)O2)[C@H](C)[C@@H](O[C@@H]2O[C@H](C)C[C@@H](N3CCC(O)CC3)[C@@H]2N(C)C)[C@@](C)(OC)C[C@@H](C)C(=O)[C@H](C)[C@@H](O)[C@]1(C)O [Example 164, 4″-O-acetyl-3′-dedimethylamino-2′-deoxy-2′-dimethylamino-3′-(4-hydroxypiperidin-1-yl)-6-O-methylerythromycin A]
2.89 | > 128 | CC[C@H]1OC(=O)[C@H](C)[C@@H](O[C@H]2C[C@@](C)(OC)[C@@H](O)[C@H](C)O2)[C@H](C)[C@@H](O[C@@H]2O[C@H](C)C[C@@H](N3CCN(CCN(C)C)CC3)[C@@H]2N(C)C)[C@@](C)(OC)C[C@@H](C)C(=O)[C@H](C)[C@@H](O)[C@]1(C)O [Example 169, 3′-dedimethylamino-2′-deoxy-2′-dimethylamino-3′-(4-(2-dimethylaminoethyl)piperazin-1-yl)-6-O-methylerythromycin A]
1.01 | > 128 | CC[C@H]1OC(=O)[C@H](C)[C@@H](O[C@H]2C[C@@](C)(OC)[C@@H](OC(C)=O)[C@H](C)O2)[C@H](C)[C@@H](O[C@@H]2O[C@H](C)C[C@@H](N(C)Cc3ccccc3)[C@@H]2N(C)C)[C@@](C)(OC)C[C@@H](C)C(=O)[C@H](C)[C@@H](O)[C@]1(C)O [Example 170, 4″-O-acetyl-3′-N-demethyl-2′-deoxy-2′-dimethylamino-3′-N-benzyl-6-O-methylerythromycin A]
1.45 | > 128 | CC[C@H]1OC(=O)[C@H](C)[C@@H](O[C@H]2C[C@@](C)(OC)[C@@H](O)[C@H](C)O2)[C@H](C)[C@@H](O[C@@H]2O[C@H](C)C[C@@H](N(C)Cc3ccccc3)[C@@H]2N(C)C)[C@@](C)(OC)C[C@@H](C)C(=O)[C@H](C)[C@@H](O)[C@]1(C)O [Example 171, 3′-N-demethyl-2′-deoxy-2′-dimethylamino-3′-N-benzyl-6-O-methylerythromycin A]
4.95 | > 128 | CC[C@H]1OC(=O)[C@H](C)[C@@H](O[C@H]2C[C@@](C)(OC)[C@@H](O)[C@H](C)O2)[C@H](C)[C@@H](O[C@@H]2O[C@H](C)C[C@@H](N(C)CCO)[C@@H]2N(C)C)[C@@](C)(OC)C[C@@H](C)C(=O)[C@H](C)[C@@H](O)[C@]1(C)O [Example 173, 3′-N-demethyl-2′-deoxy-2′-dimethylamino-3′-N-(2-hydroxyethyl)-6-O-methylerythromycin A]
